{"source": "patent US20250057959A1", "about": "“PHOSPHANE GOLD(I)-N-HETEROCYCLIC CARBENE COMPLEXES FOR TREATING CANCER” (KING FAHD UNIVERSITY OF PETROLEUM AND MINERALS, priority 2023, published 2025)", "key": {"[1]": {"system": "tumor xenografts derived from SKOV3 cells", "assay": "SKOV3 xenograft tumor growth in athymic nude mice", "type": "in vivo", "conditions": "two injections/week", "method": "(§1) Animal experimentation was reviewed and approved by Centro di Riferimento Oncologico di Aviano (CRO) Institutional Organism for Animal Wellbeing (OPBA) and approved by the Italian Ministry of Health (No. 671/2015/PR). All animal experiments were conducted in adherence to the international and institutional committees' ethical guidelines. Ten 4-week-old female athymic nude NU(NCr)-Foxn1^nu mice were purchased from Charles Rivers (Lecco, Italy). SKOV3 (10×10^6 cells/animal) were suspended in BD Matrigel basement membrane matrix (BD Biosciences) (diluted 1:3 in PBS) and inoculated into the animals' right flank. When tumors were palpable, animals were divided into two groups of five mice each, and treated with intratumoral injection of complex 6 (2 mg/kg) or vehicle (10% DMSO, 20% Cremophor Sigma-Aldrich, 70% PBS) two times a week. Body weight and tumors were examined regularly. Tumor size was measured using a digital caliper, and volumes were calculated according to the formula (width^2×length×3.14)/6."}, "[2]": {"assay": "Body weight and physical inspection of xenografted mice", "type": "in vivo", "conditions": "2 mg/kg intratumoral, two injections/week", "method": "as §1"}, "SKOV3-MCTSs": {"system": "SKOV3-MCTSs", "assay": "Apoptosis, mitROS and DNA-DSBs in SKOV3-MCTSs", "type": "cell-based, human", "method": "To obtain multiple spheroids, 5.0×10^4/mL SKOV3 cells were seeded in nonadherent conditions on poly-HEMA coated wells for 4 days. After drug treatment, viable cells were evaluated using PrestoBlue cell viability reagent (Thermo Fisher Scientific, Frederick, MD, USA) or alternatively trypsinized to a single cell suspension for further analysis.\n2.0×10^5/mL A2780 and A2780cis cells were seeded in 6-well plates in complete medium and treated with complex 6 (0.15 μM and 0.5 μM). Results were detected by flow cytometry on a BD FACSCanto II flow cytometer. Data were analyzed using BD FACSDiva version 8.0.1 software (BD Biosciences) unless otherwise indicated. To evaluate apoptosis, tumor cells were treated for 48 hours and then stained for 15 minutes with FITC annexin-V (Thermo Fisher Scientific) and 7AAD (BD Pharmingen). […] For B-cell lymphoma/leukemia-2 (Bcl-2) and Bcl-2 associated x protein (Bax) evaluation, cells were fixed and permeabilized using FIX & PERM cell fixation and cell permeabilization kit (Life Technologies). For ROS generation, cells were stained with 5 μM MitoSOX red mitochondrial superoxide indicator (ThermoFisher Scientific) in a working solution for 30 minutes at 37° C. Cell cycle analysis was performed after 24 hours treatment with complex 6. Cells were harvested, fixed in cold 70% ethanol for 15 minutes, and stained with propidium iodide (PI) solution ([…] PI, 0.1% NP-40, 100 µg/mL PureLink RNase A, 0.1% sodium citrate) for 1 hour. The distribution of cells in different cell cycle phases was quantified using ModFit LT 4.0 software (Verity Software House, Topsham, ME, USA).\n(§2) Whole-cell lysates were prepared using cold RIPA buffer [150 mM NaCl, 50 mM Tris-HCl (pH 8), 0.1% SDS, 1% Igepal, and 0.5% desoxycholate sodium] containing a protease inhibitor cocktail (Roche Diagnostics S.p.a., Milan, Italy), phosphatase inhibitors 1 mM Na3VO4 and 1 mM NaF (Sigma-Aldrich). Protein concentrations were determined using the BioRad protein assay (Bio-Rad Laboratories, Inc., CA, USA). Equal amounts of proteins were mixed with Laemmli buffer, separated in 4-20% SDS-PAGE (Criterion Precast Gel, BioRad), and blotted onto a nitrocellulose membrane (Amersham, GE Healthcare). Membrane strips were blocked with EveryBilot blocking buffer (Bio-Rad) and incubated at 4° C. overnight with primary antibodies probed with the appropriate antibodies (Table 2) and developed using Immobilon Western chemioluminescent HRP substrate. Images were acquired using a ChemiDoc XRS system (Bio-Rad)."}, "OvCa cells": {"system": "OvCa cells", "assay": "Western blot of cell cycle regulatory proteins", "type": "cell-based, human", "conditions": "24 hours", "method": "as §2"}, "[3]": {"system": "adipose-derived stem cells (ADSCs)", "assay": "Cell viability in normal adipose-derived stem cells", "type": "cell-based", "conditions": "72 hours treatment, normal human cells", "description": "Human epithelial ovarian cancer A2780 cell line and its cisplatin-resistant clone A2780cis were obtained from Sigma-Aldrich (Milano, Italy). SKOV3 (HTB-77) cells were from the American Type Culture Collection (ATCC). The two cell lines were selected to reflect the two different stages of OvCa and different sensitivity to cisplatin. A2780 cell lines were derived from the ovarian tumor tissue of an untreated patient, while SKOV3 was from the ascitic fluids (after metastasis). Cells were authenticated in the laboratory using PowerPlex 16 HS system (Promega) and GeneMapper ID version 3.2.1 to identify DNA short tandem repeats. […]\n4.0×10^3/mL A2780, A2780cis, and SKOV3 cells were seeded in 96-well microplates in 100 μL of culture medium. […] Cell viability was evaluated using 3-(4,5-dimethylthiazol-2-yl)-2,5-diphenyltetrazolium bromide (MTT) assay (Sigma-Aldrich) after 72 hours of treatment. Half maximal inhibitory concentrations (IC50) were calculated using the CalcuSyn software version 2 (Biosoft, Ferguson, MO, USA). Fold resistance was calculated as the ratio of the IC50 of the A2780cis to that of the parental cell line A2780."}}, "note": "pIC50: −log10 of the molar value.", "data": [{"molecule": "CC(C)c1cccc(C(C)C)c1-n1ccn(-c2c(C(C)C)cccc2C(C)C)[c]1=[Au+][PH](C1CCCCC1)(C1CCCCC1)C1CCCCC1.F[P-](F)(F)(F)(F)F", "note": "[Complex 6, [Au(IPr)(C18H33P)] PF6]", "values": [{"measurement": "Reduction of tumor volume with respect to vehicle-treated mice", "setting": "[1]; 2 mg/kg intratumoral", "value": "more than 80%"}, {"measurement": "Tumor mass weight", "setting": "[1]; 2 mg/kg intratumoral", "value": "reduced"}, {"measurement": "Mean tumor volume", "setting": "[1]; day 35, 2 mg/kg intratumoral, control 869.5±61.9", "value": "155.8±84.5", "unit": "mm^3"}, {"measurement": "Physical inspection and body weight", "setting": "[2]", "value": "normal to physical inspection with a comparable weight with respect to untreated mice"}, {"measurement": "mitROS generation in SKOV3-MCTSs", "setting": "SKOV3-MCTSs; 24 hours", "value": "increased mitROS generation"}, {"measurement": "Caspase-3,7 activation in SKOV3-MCTSs", "setting": "SKOV3-MCTSs; FLICA", "value": "caused the activation of caspase-3,7"}, {"measurement": "Annexin-V+ cells in SKOV3-MCTSs", "setting": "SKOV3-MCTSs; annexin-V-FITC/7AAD, flow cytometry", "value": "caused an increase of annexin-V+ cells"}, {"measurement": "DNA-DSBs (γH2AX) in SKOV3-MCTSs", "setting": "SKOV3-MCTSs; western blot", "value": "induced DNA-DSBs"}, {"measurement": "Expression of G1/S phase proteins (CDKs, cyclins, E2F1, pRB)", "setting": "OvCa cells", "value": "down-regulated the expression of CDk2, CDk4, CDk6, CycE, CycD1, CycD3"}, {"measurement": "Expression of cyclin D regulators", "setting": "OvCa cells", "value": "increased the expression of Foxo3A and pGSK-30 and decreased that of Cdc25a, PI3KI, pERK1/2, and bRAF"}, {"measurement": "pIC50", "setting": "[3]", "value": 5.60}]}]}
